From article PMC7648750, “In vitro and in vivo BNCT investigations using a carborane containing sulfonamide targeting CAIX epitopes on malignant pleural mesothelioma and breast cancer cells” (Scientific Reports, 2020)

How the values were obtained:
[1] = test system: MCF7 cells; assay: MTT cell vitality assay; format: cell-based, human; conditions: normoxia
Experimental: (§1) The MTT assay is based on the reduction in the mitochondria of metabolically active cells by succinate dehydrogenase obtaining a precipitation of purple formazan crystal. The assay was carried out using the same protocol reported by Azzi et al[42]. Briefly, AB22, ZL34 and MCF7 cells were seeded at a density of 7 × 10^3, 5 × 10^3 and 1 × 10^4 cells per well, respectively, in a 96-well microtiter plate. After 24 h at 37 °C and 5% CO2, they were incubated with increasing concentration of CA-SF or AZ for 24 h in a condition of normoxia at 37 °C and 5% CO2 by adding stock solutions in dimethyl sulfoxide (DMSO). In all the conditions the concentration of DMSO during the cell incubation was maintained under 0.25% (v/v) in cell medium. After the incubation, the medium was removed and each well was incubated with thiazolyl blue tetrazolium bromide (Sigma) dissolved in the medium at a concentration of 0.45 mg/mL for 4 h at 37 °C and 5% CO2. Then, after medium elimination, 150 µL of DMSO were added into each well to solubilise the formazan salt crystals produced by the metabolism of live cells and the microplate was incubated at room temperature (RT) for 30 min. Finally, absorbance was measured at 570 nm using an iMark microplate reader (Biorad). Cell vitality was reported as the percentage of […] cells observed in the treated samples relative to that observed in the non-treated control cells.

[2] = test system: ZL34 cells; assay: MTT cell vitality assay; format: cell-based, human; conditions: normoxia
Experimental: as §1

[3] = test system: MCF7 cells; assay: Cell uptake of boron (ICP-MS); format: cell-based, human; conditions: MCF7, 72 µM CA-SF in culture medium, 24 h, 37 °C
Experimental: (§2) For the in vitro uptake experiments, 6 × 10^5 MCF7, 4.5 × 10^5 ZL34 and 2 × 10^5 AB22 were seeded in 6 cm of diameter dishes. After 24 h for MCF7 and ZL34 and after 72 h for AB22, the cells were incubated for 24 h with increasing concentration of CA-SF. All the incubations were performed in condition of normoxia at 37 °C, 5% CO2. At the end of the incubation, cells were washed three times with 3 ml ice-cold PBS and detached with 0.05% trypsin and 0.02% EDTA. Finally, all cell samples were transferred in falcon tubes and sonicated at 30% of power for 30 s in ice. The boron content of each cell sample lysates was determined by ICP-MS technique (see below). The milligrams of proteins, proportional to the number of cells, of each cell sample lysate, was evaluated by the Bradford assay (Biorad) using bovine serum albumin as a standard.
(§3) Boron content from cell samples, mice organs, plasma and tumours were determined using inductively coupled plasma mass spectrometry (ICP-MS) (Element-2; Thermo-Finnigan, Rodano (MI), Italy).
(§4) Sample digestion was performed using a high performance Microwave Digestion System (ETHOS UP Milestone, Bergamo, Italy) after the addition of concentrated HNO3 (70%) to cell lysates (1:1), in a final volume of 0.4 mL. […] The amounts of boron µg /g tissue were thus calculated considering that 1 g of tissue contains 1 × 10^9 cells.

[4] = test system: ZL34 cells; assay: Cell uptake of boron (ICP-MS); format: cell-based, human; conditions: ZL34, 187.5 µM CA-SF in culture medium, 24 h, 37 °C
Experimental: as §2, §3, §4

[5] = test system: AB22 cells; assay: BNCT in vitro: viable cells 24 h after neutron irradiation (trypan blue); format: cell-based, mouse; conditions: AB22, 130 µM 24 h, thermal neutrons 15 min 30 kW, 24 h after irradiation
Experimental: 75 flasks of MCF7 (4 flasks), ZL34 (4 flasks) and AB22 (4 flasks) were seeded at a density of 1.8 × 10^6 cells, 1.2 × 10^6 cells and 5.5 × 10^5 cells, respectively. 24 h later for MCF7 and ZL34 and 72 h later for AB22, 2 flasks of each cell lines were incubated for 24 h in the presence of 72 µM, 187.5 µM and 130 µM of CA-SF, respectively. After the incubation, cells were washed with PBS and their medium was renewed. Two flasks of MCF7, ZL34 and AB22 cells incubated with CA-SF and two flasks containing non-treated control cells were irradiated for 15′ at 30 kW reactor power in the thermal column of the TRIGA Mark II reactor at the University of Pavia, Italy. At the end of the irradiation, the medium was removed, it was replaced with fresh medium and flasks were placed at 37 °C in a humidified atmosphere of 5% CO2.
The proliferation assay was carried out following the same procedure reported in reference 32. The day after irradiation cells were detached with 0.05% trypsin and 0.02% EDTA and the trypan blue exclusion test of cell viability was performed. Cell viability was reported as percentage of cells observed in treated a/o irradiated samples relative to that observed in control cells.

- boron loaded into the target cells [3]: 60 µg/g
- boron loaded into the target cells [4]: 90 µg/g
Substance: 1-Sulfonamidomethyl-o-carborane [CA-SF]
- cell vitality measured by MTT ([1]; MCF7, 72 µM CA-SF, 24 h, 37 °C): about 80%
- percentage of viable cells with increasing concentration (MTT) ([1]; MCF7, 24 h, Fig. 3): steadily decreases
- cell vitality measured by MTT ([2]; ZL34, 187.5 µM CA-SF, 24 h, 37 °C): about 80%
- percentage of viable cells with increasing concentration (MTT) ([2]; ZL34, 24 h, Fig. 3): steadily decreases
- viability of CA-SF treated and irradiated cells vs CA-SF treated cells [5]: significantly reduced
